This note sets out measurements from US10590128B2, “6,7,8,9-tetrahydro-5H-pyrido[2,3-d]azepine dopamine D3 ligands” (Pfizer Inc., priority 2016, dated 2020).

pKi: −log10 of the molar value.

Experiment [1] has as its target human dopamine D3 receptor (hD3R) (Homo sapiens, UniProt P35462). The experiment in a line: Human D3 receptor binding assay ([^3H]-7-OH-DPAT). Particulars: CHO cells expressing hD3R, geometric mean of 2-5 determinations unless marked b (single determination), read-out: hD3 in CHO cells Ki.
Experiment [2] has as its target human dopamine D2 receptor (hD2R) (Homo sapiens, UniProt P14416). Briefly: Human D2 receptor binding assay ([^3H]-Spiperone). Particulars: CHO cells expressing hD2R, geometric mean of 2-5 determinations unless marked b (single determination).

Chain of human dopamine D2 receptor (hD2R) (P14416 whole entry): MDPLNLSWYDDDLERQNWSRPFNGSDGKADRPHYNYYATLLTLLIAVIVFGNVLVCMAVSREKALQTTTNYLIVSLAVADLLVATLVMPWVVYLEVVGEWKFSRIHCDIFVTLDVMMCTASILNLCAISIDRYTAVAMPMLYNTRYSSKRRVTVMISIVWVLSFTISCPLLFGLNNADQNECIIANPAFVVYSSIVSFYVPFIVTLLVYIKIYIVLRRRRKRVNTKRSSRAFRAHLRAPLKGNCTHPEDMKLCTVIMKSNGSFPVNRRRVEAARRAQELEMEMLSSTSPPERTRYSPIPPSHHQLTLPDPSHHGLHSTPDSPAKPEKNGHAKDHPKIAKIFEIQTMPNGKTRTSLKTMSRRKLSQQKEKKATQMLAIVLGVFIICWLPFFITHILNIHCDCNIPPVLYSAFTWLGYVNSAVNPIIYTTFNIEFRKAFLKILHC
Chain of human dopamine D3 receptor (hD3R) (P35462 whole entry): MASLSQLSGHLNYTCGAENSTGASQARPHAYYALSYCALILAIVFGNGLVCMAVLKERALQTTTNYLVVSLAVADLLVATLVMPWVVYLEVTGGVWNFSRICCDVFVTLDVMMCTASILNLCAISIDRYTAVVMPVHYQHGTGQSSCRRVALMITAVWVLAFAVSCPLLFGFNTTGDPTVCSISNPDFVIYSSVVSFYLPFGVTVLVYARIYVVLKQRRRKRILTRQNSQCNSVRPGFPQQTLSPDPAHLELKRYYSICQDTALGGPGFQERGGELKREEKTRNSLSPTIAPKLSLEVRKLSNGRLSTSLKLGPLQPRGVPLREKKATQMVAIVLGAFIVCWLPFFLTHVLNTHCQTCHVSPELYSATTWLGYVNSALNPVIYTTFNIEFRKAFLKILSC

Regarding `COc1nc2c(cc1NS(=O)(=O)c1ccc(O[C@@H]3CCOC3)cc1)CCN(C)CC2` [Example 37, N-(2-methoxy-7-methyl-6,7,8,9-tetrahydro-5H-pyrido[2,3-d]azepin-3-yl)-4-[(3R)-tetrahydrofuran-3-yloxy]benzenesulfonamide], the results for the negative logarithm of the Ki (pKi) in experiment [1] and in experiment [2] were 8.49 and 6.59, respectively.

Turning to `CCOc1ccc(S(=O)(=O)Nc2cc3c(nc2OC)CCN(CCOC)CC3)cc1` [Example 29, 4-ethoxy-N-[2-methoxy-7-(2-methoxyethyl)-6,7,8,9-tetrahydro-5H-pyrido[2,3-d]azepin-3-yl]benzenesulfonamide], the figures for the pKi in experiment [1] and in experiment [2] were 7.95 and 5.97, respectively.

For the compound `COc1nc2c(cc1NS(=O)(=O)c1ccc(C3CCOC(C)C3)cc1)CCN(C)CC2` (single isomer, unassigned) [Example 85], the values for the negative-log Ki (pKi) in experiment [1] and in experiment [2] were 8.49 and 6.52, respectively.

For the compound `COc1nc2c(cc1NS(=O)(=O)c1ccc([C@H](C)OC)cc1)CCN(C)CC2` [Example 89, 4-[(1S)-1-methoxyethyl]-N-(2-methoxy-7-methyl-6,7,8,9-tetrahydro-5H-pyrido[2,3-d]azepin-3-yl)benzenesulfonamide], the pKi was 8.78 in experiment [1] and 7.12 in experiment [2].

Take `COc1nc2c(cc1NS(=O)(=O)c1ccc(C(F)(F)C3CCCC3)nc1)CCN(C)CC2` [Example 47, 6-[cyclopentyl(difluoro)methyl]-N-(2-methoxy-7-methyl-6,7,8,9-tetrahydro-5H-pyrido[2,3-d]azepin-3-yl)pyridine-3-sulfonamide]: the negative logarithm of the Ki (pKi) was 8.63 in experiment [1] and 6.75 in experiment [2].

On to `COc1nc2c(cc1NS(=O)(=O)c1ccc([C@H]3CCCCO3)c(C)c1)CCN(C)CC2` [Example 104, N-(2-methoxy-7-methyl-6,7,8,9-tetrahydro-5H-pyrido[2,3-d]azepin-3-yl)-3-methyl-4-[(2R)-tetrahydro-2H-pyran-2-yl]benzenesulfonamide], for which the pKi is 9.41 in experiment [1] and 8.41 in experiment [2].

Take `COc1nc2c(cc1NS(=O)(=O)c1ccc([C@@H]3CCCO3)cc1)CCN(C)CC2` [Example 98, N-(2-methoxy-7-methyl-6,7,8,9-tetrahydro-5H-pyrido[2,3-d]azepin-3-yl)-4-[(2S)-tetrahydrofuran-2-yl]benzenesulfonamide]: the results for the negative-log Ki (pKi) in experiment [1] and in experiment [2] were 8.40 and 6.31, respectively.

Turning to `CCN1CCc2cc(NS(=O)(=O)c3ccc(Cl)cc3)c(C)nc2CC1` [Example 138, 4-chloro-N-(7-ethyl-2-methyl-6,7,8,9-tetrahydro-5H-pyrido[2,3-d]azepin-3-yl)benzenesulfonamide], the pKi in experiment [1] was 6.54; in experiment [2], less than 5.38.

In the case of `COc1nc2c(cc1NS(=O)(=O)c1ccc([C@]3(F)C[C@H](OCCF)C3)cc1)CCN(C)CC2` [Example 133, 4-[trans-1-fluoro-3-(2-fluoroethoxy)cyclobutyl]-N-(2-methoxy-7-methyl-6,7,8,9-tetrahydro-5H-pyrido[2,3-d]azepin-3-yl)benzenesulfonamide], the figures for the pKi in experiment [1] and in experiment [2] were 8.61 and 6.37, respectively.

Consider `CCN1CCc2cc(NS(=O)(=O)c3ccc(C4CCCCO4)cc3)c(OC)nc2CC1` (racemic) [Example 70, N-(7-ethyl-2-methoxy-6,7,8,9-tetrahydro-5H-pyrido[2,3-d]azepin-3-yl)-4-(tetrahydro-2H-pyran-2-yl)benzenesulfonamide], for which the pKi is 8.70 in experiment [1] and 6.53 in experiment [2].

On to `CCN1CCc2cc(NS(=O)(=O)c3ccc(C4CCCCO4)cc3)c(OC)nc2CC1` (single isomer, unassigned) [Example 74], for which the values for the pKi in experiment [1] and in experiment [2] were 8.59 and 6.69, respectively.

`CCOC1CC(c2ccc(S(=O)(=O)Nc3cc4c(nc3OC)CCN(CC)CC4)cc2)C1` (stereo not drawn) [Example 121, 4-(trans-3-ethoxycycyclobutyl)-N-(7-ethyl-2-methoxy-6,7,8,9-tetrahydro-5H-pyrido[2,3-d]azepin-3-yl)benzenesulfonamide]: the pKi in experiment [1] was 8.60; in experiment [2], 7.40.

As to `CCO[C@H]1C[C@@H](c2ccc(S(=O)(=O)Nc3cc4c(nc3OC)CCN(CC)CC4)cc2)C1` [Example 120, 4-(cis-3-ethoxycyclobutyl)-N-(7-ethyl-2-methoxy-6,7,8,9-tetrahydro-5H-pyrido[2,3-d]azepin-3-yl)benzenesulfonamide], the negative logarithm of the Ki (pKi) in experiment [1] is 8.89; in experiment [2], 7.27.

In the case of `COc1nc2c(cc1NS(=O)(=O)c1ccc(C3CCCCC3)nc1)CCN(C)CC2` [Example 1, 6-Cyclohexyl-N-(2-methoxy-7-methyl-6,7,8,9-tetrahydro-5H-pyrido[2,3-d]azepin-3-yl)pyridine-3-sulfonamide], the pKi in experiment [1] was 8.76; in experiment [2] it was 7.41.

For `CCOc1ccc(S(=O)(=O)Nc2cc3c(nc2OC)CCN(C)CC3)cc1` [Example 28, 4-ethoxy-N-(2-methoxy-7-methyl-6,7,8,9-tetrahydro-5H-pyrido[2,3-d]azepin-3-yl)benzenesulfonamide], the pKi in experiment [1] was 8.63; in experiment [2] it was 6.91.

For the compound `CCN1CCc2cc(NS(=O)(=O)c3ccc(C)cc3)c(OC)nc2CC1` [Example 53, N-(7-ethyl-2-methoxy-6,7,8,9-tetrahydro-5H-pyrido[2,3-d]azepin-3-yl)-4-methylbenzenesulfonamide], the pKi was 8.56 in experiment [1] and 6.50 in experiment [2].

Consider `CCO[C@H]1C[C@H](c2ccc(S(=O)(=O)Nc3cc4c(nc3OC)CCN(C)CC4)cn2)C1` [Example 134, 6-(trans-3-ethoxycyclobutyl)-N-(2-methoxy-7-methyl-6,7,8,9-tetrahydro-5H-pyrido[2,3-d]azepin-3-yl)pyridine-3-sulfonamide], for which the pKi in experiment [1] is 7.83; in experiment [2] it was 5.74.

Regarding `COc1nc2c(cc1NS(=O)(=O)c1ccc(Cl)cc1)CCN(C)CC2` [Example 27, 4-chloro-N-(2-methoxy-7-methyl-6,7,8,9-tetrahydro-5H-pyrido[2,3-d]azepin-3-yl)benzenesulfonamide], the pKi in experiment [1] is 8.49; in experiment [2], 6.40.

As to `COc1nc2c(cc1NS(=O)(=O)c1ccc(C3CC(F)(F)CCO3)cc1)CCN(C)CC2` (single isomer, unassigned) [Example 41], the negative-log Ki (pKi) in experiment [1] is 8.64; in experiment [2] it was 6.75.

Take `COc1nc2c(cc1NS(=O)(=O)c1ccc(C3CCOC(C)(C)C3)cc1)CCN(C)CC2` (single isomer, unassigned) [Example 86]: the negative logarithm of the Ki (pKi) in experiment [1] is 7.45; in experiment [2] it was 5.86.

For `CCN1CCc2cc(NS(=O)(=O)c3ccc(C4(F)CCC(OC)CC4)cc3)c(OC)nc2CC1` (single isomer, unassigned) [Example 94, N-(7-ethyl-2-methoxy-6,7,8,9-tetrahydro-5H-pyrido[2,3-d]azepin-3-yl)-4-(1-fluoro-4-methoxycyclohexyl)benzenesulfonamide], the pKi is 8.57 in experiment [1] and 6.14 in experiment [2].

Regarding `COc1nc2c(cc1NS(=O)(=O)c1ccc(C3CC(F)CCO3)cc1)CCN(C)CC2` (single isomer, unassigned) [Example 106, 4-(4-fluorotetrahydro-2H-pyran-2-yl)-N-(2-methoxy-7-methyl-6,7,8,9-tetrahydro-5H-pyrido[2,3-d]azepin-3-yl)benzenesulfonamide], the values for the pKi in experiment [1] and in experiment [2] were 8.37 and 6.49, respectively.

`COc1nc2c(cc1NS(=O)(=O)c1cnc(C3CCCC3)nc1)CCN(C)CC2` [Example 123, 2-cyclopentyl-N-(2-methoxy-7-methyl-6,7,8,9-tetrahydro-5H-pyrido[2,3-d]azepin-3-yl)pyrimidine-5-sulfonamide]: the pKi in experiment [1] is 7.89; in experiment [2], 6.79.

In the case of `CCN1CCc2cc(NS(=O)(=O)c3ccc(C)cc3C)c(OC)nc2CC1` [Example 65, N-(7-ethyl-2-methoxy-6,7,8,9-tetrahydro-5H-pyrido[2,3-d]azepin-3-yl)-2,4-dimethylbenzenesulfonamide], the negative-log Ki (pKi) was 8.81 in experiment [1] and 6.56 in experiment [2].

`COc1nc2c(cc1NS(=O)(=O)c1ccc(C3(F)CCCC3)nc1)CCN(C)CC2` [Example 11, 6-(1-fluorocyclopentyl)-N-(2-methoxy-7-methyl-6,7,8,9-tetrahydro-5H-pyrido[2,3-d]azepin-3-yl)pyridine-3-sulfonamide]: the pKi is 8.48 in experiment [1] and 6.97 in experiment [2].

With `COc1nc2c(cc1NS(=O)(=O)c1ccc(C3CCCOC3)cc1)CCN(C)CC2` (single isomer, unassigned) [Example 83], the pKi in experiment [1] was 8.33; in experiment [2], 6.36.

For the compound `COc1nc2c(cc1NS(=O)(=O)c1ccc(C3CCCCO3)cc1)CCN(C)CC2` (stereo not drawn) [Example 6, N-(2-Methoxy-7-methyl-6,7,8,9-tetrahydro-5H-pyrido[2,3-d]azepin-3-yl)-4-(tetrahydro-2H-pyran-2-yl)benzenesulfonamide], the pKi was 9.06 in experiment [1] and 7.26 in experiment [2].

In the case of `CCN1CCc2cc(NS(=O)(=O)c3ccc(C4CCCC4)nc3)c(OC)nc2CC1` [Example 102, 6-cyclopentyl-N-(7-ethyl-2-methoxy-6,7,8,9-tetrahydro-5H-pyrido[2,3-d]azepin-3-yl)pyridine-3-sulfonamide], the negative logarithm of the Ki (pKi) in experiment [1] was 8.55; in experiment [2], 6.49.

With `CCN1CCc2cc(NS(=O)(=O)c3ccc(C4(F)CCCC4)nc3)c(OC)nc2CC1` [Example 101, N-(7-ethyl-2-methoxy-6,7,8,9-tetrahydro-5H-pyrido[2,3-d]azepin-3-yl)-6-(1-fluorocyclopentyl)pyridine-3-sulfonamide], the pKi in experiment [1] is 8.20; in experiment [2], 6.17.

Turning to `COc1nc2c(cc1NS(=O)(=O)c1ccc(C3CCCOC3)cc1)CCN(C)CC2` (racemic) [Example 77, N-(2-methoxy-7-methyl-6,7,8,9-tetrahydro-5H-pyrido[2,3-d]azepin-3-yl)-4-(tetrahydro-2H-pyran-3-yl)benzenesulfonamide], the negative logarithm of the Ki (pKi) is 8.34 in experiment [1] and 6.26 in experiment [2].
